In ChEMBL document CHEMBL1143961, “Synthesis and antiplatelet activity of ethyl 4-(1-benzyl-1H-indazol-3-yl)benzoate (YD-3) derivatives” (Bioorg Med Chem, 2008):
Each block holds one molecule with its values, some of them ahead of it.

Key:
Assay type in all cases: functional, cell-based
[1] = test system: Platelet; experiment: Inhibition of collagen-induced human platelet aggregation
[2] = test system: Platelet; experiment: Inhibition of U46619-induced human platelet aggregation
[3] = test system: Platelet; experiment: Inhibition of SFLLRN-induced human platelet aggregation
[4] = test system: Platelet; experiment: Inhibition of GYPGKF-induced human platelet aggregation
[5] = test system: Platelet; experiment: Inhibition of thrombin-induced human platelet aggregation

SMILES: CCOC(=O)c1ccc(-c2nn(Cc3ccccc3Cl)c3ccccc23)cc1
IC50 [1]: > 10 µM
IC50 [2]: > 10 µM
IC50 [3]: > 10 µM
IC50 [4]: 0.23 µM
IC50 [5]: > 10 µM

SMILES: CCOC(=O)c1ccc(-c2nn(Cc3ccc(OC)cc3)c3ccccc23)cc1
IC50 [1]: > 10 µM
IC50 [2]: > 10 µM
IC50 [3]: > 10 µM
IC50 [4]: 0.62 µM
IC50 [5]: > 10 µM

SMILES: CCOC(=O)/C=C/c1ccc(-c2nn(Cc3ccccc3)c3ccccc23)cc1
IC50 [1]: > 10 µM
IC50 [2]: > 10 µM
IC50 [3]: > 10 µM
IC50 [4]: > 10 µM
IC50 [5]: > 10 µM

SMILES: CCCn1nc(-c2ccc(C(=O)OCC)cc2)c2ccccc21
IC50 [1]: > 10 µM
IC50 [2]: > 10 µM
IC50 [3]: > 10 µM
IC50 [4]: 0.49 µM
IC50 [5]: > 10 µM

SMILES: CCOC(=O)c1ccc(-c2nn(Cc3ccccc3F)c3ccccc23)cc1
IC50 [1]: > 10 µM
IC50 [2]: > 10 µM
IC50 [3]: > 10 µM
IC50 [4]: 0.11 µM
IC50 [5]: > 10 µM

SMILES: CCOC(=O)c1cccc(-c2nn(Cc3ccccc3)c3ccccc23)c1
IC50 [1]: > 10 µM
IC50 [2]: > 10 µM
IC50 [3]: > 10 µM
IC50 [4]: > 10 µM
IC50 [5]: > 10 µM

SMILES: CCOC(=O)c1ccc(-c2nn(C)c3ccccc23)cc1
IC50 [1]: > 10 µM
IC50 [2]: > 10 µM
IC50 [3]: > 10 µM
IC50 [4]: 0.27 µM
IC50 [5]: > 10 µM

Now from value to molecule:

IC50 [1]: > 10 µM
IC50 [2]: > 10 µM
IC50 [3]: > 10 µM
IC50 [4]: 0.26 µM
IC50 [5]: > 10 µM
SMILES: CCOC(=O)c1ccc(-c2nn(Cc3cccc(OC)c3)c3ccccc23)cc1

IC50 [1]: > 10 µM
IC50 [2]: > 10 µM
IC50 [3]: > 10 µM
IC50 [4]: > 10 µM
IC50 [5]: > 10 µM
SMILES: CO/N=C\c1ccc(-c2nn(Cc3ccccc3)c3ccccc23)cc1

IC50 [1]: > 10 µM
IC50 [2]: > 10 µM
IC50 [3]: > 10 µM
IC50 [4]: 0.56 µM
IC50 [5]: > 10 µM
SMILES: COC(=O)c1ccc(-c2nn(Cc3ccccc3)c3ccccc23)cc1

IC50 [1]: > 10 µM
IC50 [2]: > 10 µM
IC50 [3]: > 10 µM
IC50 [4]: 0.19 µM
IC50 [5]: > 10 µM
SMILES: CCOC(=O)c1ccc(-c2nn(Cc3ccc(F)cc3)c3ccccc23)cc1

IC50 [1]: > 10 µM
IC50 [2]: > 10 µM
IC50 [3]: > 10 µM
IC50 [4]: > 10 µM
IC50 [5]: > 10 µM
SMILES: OCc1ccc(-c2nn(Cc3ccccc3)c3ccccc23)cc1

IC50 [1]: > 10 µM
IC50 [2]: > 10 µM
IC50 [3]: > 10 µM
IC50 [4]: 0.65 µM
IC50 [5]: > 10 µM
SMILES: CCOC(=O)c1ccc(-c2nn(C(C)C)c3ccccc23)cc1

IC50 [1]: > 10 µM
IC50 [2]: > 10 µM
IC50 [3]: > 10 µM
IC50 [4]: > 10 µM
IC50 [5]: > 10 µM
SMILES: CC(C)OC(=O)c1ccc(-c2nn(Cc3ccccc3)c3ccccc23)cc1

IC50 [1]: > 10 µM
IC50 [2]: > 10 µM
IC50 [3]: > 10 µM
IC50 [4]: 5.64 µM
IC50 [5]: > 10 µM
SMILES: CCNC(=O)c1ccc(-c2nn(Cc3ccccc3)c3ccccc23)cc1

IC50 [1]: > 10 µM
IC50 [2]: > 10 µM
IC50 [3]: > 10 µM
IC50 [4]: 0.58 µM
IC50 [5]: > 10 µM
SMILES: CCOC(=O)c1ccc(-c2nn(Cc3ccoc3)c3ccccc23)cc1

IC50 [1]: > 10 µM
IC50 [2]: > 10 µM
IC50 [3]: > 10 µM
IC50 [4]: 0.27 µM
IC50 [5]: > 10 µM
SMILES: CCOC(=O)c1ccc(-c2nn(Cc3cccc(F)c3)c3ccccc23)cc1
